From patent US10548317B2, “Pesticidally active pyrazole derivatives” (SYNGENTA PARTICIPATIONS AG, priority 2015, dated 2020)

Experiments:
Format in all cases: in vivo
Diabrotica balteata = Diabrotica balteata (corn root worm) maize sprout test; settings: 96 h, application rate of 200 ppm, maize sprouts, L2 larvae, 4 days after infestation, read-out: effect in at least one of the two categories (mortality or growth inhibition)
Protocol: Diabrotica balteata, (Corn Root Worm)
Maize sprouts, placed on an agar layer in 24-well microtiter plates were treated with aqueous test solutions prepared from 10'000 ppm DMSO stock solutions by spraying. After drying, the plates were infested with L2 larvae (6 to 10 per well). The samples were assessed for mortality and growth inhibition in comparison to untreated samples 4 days after infestation. The following compounds gave an effect of at least 80% in at least one of the two categories (mortality or growth inhibition) at an application rate of 200 ppm: 1, 3, 4, 5, 6, 7, 8, 9, 10, 11, 12, 14, 15, 16, 17, 18, 19, 20, 21, 22, 23, 24, 25, 26, 27, 28, 29, 30, 31, 32, 33, 35, 36, 37, 38, 39, 40, 41, 42, 43, 44, 45, 48, 50, 51, 52, 53, 54 and 55.

Spodoptera littoralis = Spodoptera littoralis (Egyptian cotton leaf worm) leaf disc spray test; settings: foliar, 72 h, application rate of 200 ppm, cotton leaf discs, L1 larvae, 3 days after infestation, read-out: control (at least one of mortality, anti-feedant effect, growth inhibition)
Protocol: Spodoptera littoralis (Egyptian Cotton Leaf Worm)
Cotton leaf discs were placed on agar in 24-well microtiter plates and sprayed with aqueous test solutions prepared from 10'000 ppm DMSO stock solutions. After drying the leaf discs were infested with five L1 larvae. The samples were assessed for mortality, anti-feedant effect, and growth inhibition in comparison to untreated samples 3 days after infestation. Control of Spodoptera littoralis by a test sample is when at least one of mortality, anti-feedant effect, and growth inhibition is higher than the untreated sample.

Thrips tabaci = Thrips tabaci (onion thrips) sunflower leaf disc test; settings: foliar, 144 h, application rate of 200 ppm, sunflower leaf discs, mixed ages, 6 days after infestation
Protocol: Thrips tabaci (Onion thrips):
(§1) Sunflower leaf discs were placed on agar in 24-well microtiter plates and sprayed with aqueous test solutions prepared from 10'000 ppm DMSO stock solutions. After drying the leaf discs were infested with a thrips population of mixed ages. The samples were assessed for mortality 6 days after infestation.

Plutella xylostella = Plutella xylostella (diamond back moth) artificial diet test; settings: 120 h, application rate of 200 ppm, L2 larvae, 5 days after infestation, read-out: effect in at least one of the two categories (mortality or growth inhibition)
Protocol: Plutella xylostella (Diamond Back Moth):
24-well microtiter plates with artificial diet were treated with aqueous test solutions prepared from 10'000 ppm DMSO stock solutions by pipetting. After drying, the plates were infested with L2 larvae (10 to 15 per well). The samples were assessed for mortality and growth inhibition in comparison to untreated samples 5 days after infestation. The following compounds gave an effect of at least 80% in at least one of the two categories (mortality or growth inhibition) at an application rate of 200 ppm: 1, 2, 3, 4, 5, 6, 7, 8, 9, 10, 11, 12, 13, 14, 15, 16, 17, 18, 19, 20, 21, 22, 23, 24, 25, 26, 27, 28, 29, 30, 31, 32, 33, 35, 36, 37, 38, 39, 40, 41, 42, 43, 44, 45, 46, 47, 48, 50, 51, 52, 53, 54 and 55.

Euschistus heros = Euschistus heros (neotropical brown stink bug) soybean leaf test; settings: 120 h, application rate of 200 ppm, soybean leaves, N2 nymphs, 5 days after infestation, read-out: effect in at least one of the two categories (mortality or growth inhibition)
Protocol: Euschistus heros (Neotropical Brown Stink Bug)
Soybean leaves on agar in 24-well microtiter plates were sprayed with aqueous test solutions prepared from 10'000 ppm DMSO stock solutions. After drying the leaves were infested with N2 nymphs. The samples were assessed for mortality and growth inhibition in comparison to untreated samples 5 days after infestation. The following compounds gave an effect of at least 80% in at least one of the two categories (mortality or growth inhibition) at an application rate of 200 ppm: 3, 4, 5, 6, 9, 10, 12, 14, 15, 16, 17, 18, 20, 24, 27, 28, 29, 31, 32, 33, 36, 37, 38, 42, 43, 45, 50, 52, 53, 54 and 55.

Tetranychus urticae = Tetranychus urticae (two-spotted spider mite) bean leaf disc test; settings: foliar, 192 h, application rate of 200 ppm, bean leaf discs, mixed population (mobile stages), 8 days after infestation
Protocol: Tetranychus urticae (Two-Spotted Spider Mite):
as §1, with “Bean” for “Sunflower”, “discs” for “discs were placed”, “were” for “and”, “mite” for “thrips”, “on mixed population (mobile stages) 8” for “6”

Cn1nc(C(F)(F)C(F)(F)F)c(C(F)(F)F)c1-n1cc(-c2cc(C(=O)Nc3ccncc3)c(Cl)s2)cn1 [Compound 21]
≥ 80%: percent effect (mortality or growth inhibition) at 200 ppm (Diabrotica balteata) | control (mortality, anti-feedant effect or growth inhibition) at 200 ppm (Spodoptera littoralis) | mortality at 200 ppm (Thrips tabaci) | percent effect (mortality or growth inhibition) at 200 ppm (Plutella xylostella)

Cn1nc(C(F)(F)C(F)(F)F)c(C(F)(F)F)c1-n1cc(-c2cc(C(=O)Nc3ccc(Cl)cc3)c(Cl)s2)cn1 [Compound 25]
≥ 80%: percent effect (mortality or growth inhibition) at 200 ppm (Diabrotica balteata) | percent effect (mortality or growth inhibition) at 200 ppm (Plutella xylostella)

Cn1nc(OC(F)(F)C(F)C(F)(F)F)c(C(F)(F)F)c1-n1cc(-c2cc(C(=O)NC3CC3)c(Cl)s2)cn1 (stereo not shown) [Compound 53]
≥ 80%: percent effect (mortality or growth inhibition) at 200 ppm (Euschistus heros) | percent effect (mortality or growth inhibition) at 200 ppm (Diabrotica balteata) | control (mortality, anti-feedant effect or growth inhibition) at 200 ppm (Spodoptera littoralis) | percent effect (mortality or growth inhibition) at 200 ppm (Plutella xylostella)

Cn1nc(C(F)(F)C(F)(F)F)c(C(F)(F)F)c1-n1cc(-n2cc(C(=O)NC3(C#N)CC3)c(C(F)(F)F)n2)cn1 [Compound 11]
≥ 80%: percent effect (mortality or growth inhibition) at 200 ppm (Diabrotica balteata) | control (mortality, anti-feedant effect or growth inhibition) at 200 ppm (Spodoptera littoralis) | mortality at 200 ppm (Thrips tabaci) | percent effect (mortality or growth inhibition) at 200 ppm (Plutella xylostella) | mortality at 200 ppm (Tetranychus urticae)

Cn1nc(C(F)(F)C(F)(F)F)c(C(F)(F)F)c1-n1cc(-c2csc(C(=O)NC3(C#N)CC3)n2)cn1 [Compound 41]
≥ 80%: percent effect (mortality or growth inhibition) at 200 ppm (Diabrotica balteata) | control (mortality, anti-feedant effect or growth inhibition) at 200 ppm (Spodoptera littoralis) | percent effect (mortality or growth inhibition) at 200 ppm (Plutella xylostella)

Cn1nc(C(F)(F)C(F)(F)F)c(C(F)(F)F)c1-n1cc(-c2cc(C(=O)NCc3ccccc3)c(Cl)s2)cn1 [Compound 19]
≥ 80%: percent effect (mortality or growth inhibition) at 200 ppm (Diabrotica balteata) | control (mortality, anti-feedant effect or growth inhibition) at 200 ppm (Spodoptera littoralis) | percent effect (mortality or growth inhibition) at 200 ppm (Plutella xylostella) | mortality at 200 ppm (Tetranychus urticae)

C=C(C)CNC(=O)c1cc(-c2cnn(-c3c(C(F)(F)F)c(C(F)(F)C(F)(F)F)nn3C)c2)sc1Cl [Compound 13]
≥ 80%: control (mortality, anti-feedant effect or growth inhibition) at 200 ppm (Spodoptera littoralis) | percent effect (mortality or growth inhibition) at 200 ppm (Plutella xylostella) | mortality at 200 ppm (Tetranychus urticae)

Cn1nc(C(F)(F)C(F)(F)F)c(OC(F)F)c1-n1cc(-c2cc(C(=O)NC3(C#N)CC3)cs2)cn1 [Compound 39]
≥ 80%: percent effect (mortality or growth inhibition) at 200 ppm (Diabrotica balteata) | control (mortality, anti-feedant effect or growth inhibition) at 200 ppm (Spodoptera littoralis) | percent effect (mortality or growth inhibition) at 200 ppm (Plutella xylostella) | mortality at 200 ppm (Tetranychus urticae)

Cn1nc(C(F)(F)C(F)(F)F)c(C(F)(F)F)c1-n1cc(-c2cc(C(=O)NCCC(F)(F)F)c(Cl)s2)cn1 [Compound 30]
≥ 80%: percent effect (mortality or growth inhibition) at 200 ppm (Diabrotica balteata) | control (mortality, anti-feedant effect or growth inhibition) at 200 ppm (Spodoptera littoralis) | mortality at 200 ppm (Thrips tabaci) | percent effect (mortality or growth inhibition) at 200 ppm (Plutella xylostella) | mortality at 200 ppm (Tetranychus urticae)

Cn1nc(C(F)(F)C(F)(F)F)c(C(F)(F)F)c1-n1cc(-c2cc(Cl)c(C(=O)NC3(C#N)CC3)s2)cn1 [Compound 2, 3-chloro-N-(1-cyanocyclopropyl)-5-[1-[2-methyl-5-(1,1,2,2,2-pentafluoroethyl)-4-(trifluoromethyl)pyrazol-3-yl]pyrazol-4-yl]thiophene-2-carboxamide]
≥ 80%: control (mortality, anti-feedant effect or growth inhibition) at 200 ppm (Spodoptera littoralis) | percent effect (mortality or growth inhibition) at 200 ppm (Plutella xylostella)

Cn1nc(C(F)(F)C(F)(F)F)c(C(F)(F)F)c1-n1cc(-c2nc(C(=O)NC3CC3)c(Cl)s2)cn1 [Compound 8, 5-chloro-N-cyclopropyl-2-[1-[2-methyl-5-(1,1,2,2,2-pentafluoroethyl)-4-(trifluoromethyl)pyrazol-3-yl]pyrazol-4-yl]thiazole-4-carboxamide]
≥ 80%: percent effect (mortality or growth inhibition) at 200 ppm (Diabrotica balteata) | control (mortality, anti-feedant effect or growth inhibition) at 200 ppm (Spodoptera littoralis) | percent effect (mortality or growth inhibition) at 200 ppm (Plutella xylostella)

Cc1nn(-c2cnn(-c3c(C(F)(F)F)c(C(F)(F)C(F)(F)F)nn3C)c2)cc1C(=O)NC1CC1 [Compound 46]
≥ 80%: control (mortality, anti-feedant effect or growth inhibition) at 200 ppm (Spodoptera littoralis) | percent effect (mortality or growth inhibition) at 200 ppm (Plutella xylostella)

Cn1nc(C(F)(F)C(F)(F)F)c(C(F)(F)F)c1-n1cc(-c2cc(Cl)c(C(=O)NC3CC3)s2)cn1 [Compound 1, 3-chloro-N-cyclopropyl-5-[1-[2-methyl-5-(1,1,2,2,2-pentafluoroethyl)-4-(trifluoromethyl)pyrazol-3-yl]pyrazol-4-yl]thiophene-2-carboxamide]
≥ 80%: percent effect (mortality or growth inhibition) at 200 ppm (Diabrotica balteata) | control (mortality, anti-feedant effect or growth inhibition) at 200 ppm (Spodoptera littoralis) | mortality at 200 ppm (Thrips tabaci) | percent effect (mortality or growth inhibition) at 200 ppm (Plutella xylostella) | mortality at 200 ppm (Tetranychus urticae)

Cn1nc(C(F)(F)C(F)(F)F)c(C(F)(F)F)c1-n1cc(-c2csc(C(=O)NC3CC3)n2)cn1 [Compound 40]
≥ 80%: percent effect (mortality or growth inhibition) at 200 ppm (Diabrotica balteata) | control (mortality, anti-feedant effect or growth inhibition) at 200 ppm (Spodoptera littoralis) | percent effect (mortality or growth inhibition) at 200 ppm (Plutella xylostella)

CC(C)CNC(=O)c1cc(-c2cnn(-c3c(C(F)(F)F)c(C(F)(F)C(F)(F)F)nn3C)c2)sc1Cl [Compound 23]
≥ 80%: percent effect (mortality or growth inhibition) at 200 ppm (Diabrotica balteata) | control (mortality, anti-feedant effect or growth inhibition) at 200 ppm (Spodoptera littoralis) | percent effect (mortality or growth inhibition) at 200 ppm (Plutella xylostella) | mortality at 200 ppm (Tetranychus urticae)

Cn1nc(C(F)(F)C(F)(F)F)c(C(F)(F)F)c1-n1cc(-c2cc(C(=O)NC3(C(F)(F)F)CC3)c(Cl)s2)cn1 [Compound 22]
≥ 80%: percent effect (mortality or growth inhibition) at 200 ppm (Diabrotica balteata) | control (mortality, anti-feedant effect or growth inhibition) at 200 ppm (Spodoptera littoralis) | mortality at 200 ppm (Thrips tabaci) | percent effect (mortality or growth inhibition) at 200 ppm (Plutella xylostella) | mortality at 200 ppm (Tetranychus urticae)

Cn1nc(C(F)(F)C(F)(F)F)c(C(F)(F)F)c1-n1cc(-c2csc(C(=O)NC3(C#N)CC3)c2)cn1 [Compound 51]
≥ 80%: percent effect (mortality or growth inhibition) at 200 ppm (Diabrotica balteata) | control (mortality, anti-feedant effect or growth inhibition) at 200 ppm (Spodoptera littoralis) | percent effect (mortality or growth inhibition) at 200 ppm (Plutella xylostella)

Cn1nc(C(F)(F)C(F)(F)F)c(C(F)(F)F)c1-n1cc(-c2cc(C(=O)NCc3ccccn3)c(Cl)s2)cn1 [Compound 26]
≥ 80%: percent effect (mortality or growth inhibition) at 200 ppm (Diabrotica balteata) | control (mortality, anti-feedant effect or growth inhibition) at 200 ppm (Spodoptera littoralis) | percent effect (mortality or growth inhibition) at 200 ppm (Plutella xylostella) | mortality at 200 ppm (Tetranychus urticae)

Cn1nc(C(F)(F)C(F)(F)F)c(C(F)(F)F)c1-n1cc(-c2nc(C(=O)NC3(C#N)CC3)c(Cl)s2)cn1 [Compound 7, 5-chloro-N-(1-cyanocyclopropyl)-2-[1-[2-methyl-5-(1,1,2,2,2-pentafluoroethyl)-4-(trifluoromethyl)pyrazol-3-yl]pyrazol-4-yl]thiazole-4-carboxamide]
≥ 80%: percent effect (mortality or growth inhibition) at 200 ppm (Diabrotica balteata) | control (mortality, anti-feedant effect or growth inhibition) at 200 ppm (Spodoptera littoralis) | percent effect (mortality or growth inhibition) at 200 ppm (Plutella xylostella) | mortality at 200 ppm (Tetranychus urticae)

Cn1nc(C(F)(F)C(F)(F)F)c(C(F)(F)F)c1-n1cc(-n2cc(C(=O)NC3(C#N)CC3)c(C(F)(F)F)c2)cn1 [Compound 44]
≥ 80%: percent effect (mortality or growth inhibition) at 200 ppm (Diabrotica balteata) | control (mortality, anti-feedant effect or growth inhibition) at 200 ppm (Spodoptera littoralis) | mortality at 200 ppm (Thrips tabaci) | percent effect (mortality or growth inhibition) at 200 ppm (Plutella xylostella)
